Reference: US20190022135A1, “TREATMENT FOR CHITIN-CONTAINING MICROORGANISMS” (Benchmark Animal Health Limited, priority 2016, published 2019)

What was measured:
[1] = test system: Saprolegnia sp.; test: Effect on Saprolegnia zoospores, spores and hyphae (stated finding)
[2] = test system: Saprolegnia spores; test: Saprolegnia spore viability in biofilms (CellTiter 96 MTS assay); assay type: cell-based; settings: 4 h
Experimental: The effect of treating Saprolegnia-spores with combinations of boric acid and propionic acid was investigated in biofilm preparations since this is one of the most challenging conditions under which effects can be tested.
Spores were produced to form biofilms. Saprolegnia hyphae were excised from GY agar plates and then incubated in GY broth (15±1° C., 2 days), giving additional hyphal growth. Young hyphae were washed in SAW, transferred to two glass bottles containing one liter of SAW and incubated at 21±1° C. (24 h) to allow zoospore production. Suspensions of zoospores were filtered (tea filter, 0.5 mm pores) resulting in zoospore encystment. Cysts were counted by hemocytometer, the cyst suspensions were adjusted to 1.0±104 spores/L. The suspension was then used in the biofilm formation studies (chambered cover glass system) within 3 h of counting.
Treatment with BA and/or PA was for 4 hours in stagnate, aerated water after which the water circulation was resumed. Biofilm preparations were tested for viability as described (Ali et al. 2014). In brief, CellTiter 96 aqueous one solution cell proliferation assay (Promega) was used. The test is based on tetrazolium compound [3-(4,5-dimethylthiazol-2-yl)-5-(3-carboxy-methoxyphenyl)-2-(4-sulfophenyl)-2H-tetrazolium, inner salt; MTS] being reduced by viable cells resulting in the formation of formazan products from MTS. The reaction is based on mitochondrial enzymes being active (dehydrogenase) (Lopes et al. 2013), and is an indicator of metabolic rate of the mitochondria.
Tests were run in 72-well plates with biofilm formed in the wells. BA and/or PA was then added to each tested well (except controls) at increasing concentrations, 1-4 g/L for BA and 31.4 to 125.6 mM/L for PA. Bronopol was used as a positive treatment but at 300 mg/L concentration, and SAW as negative control. Wells with the MTS reagent without spores were used as a background control. The plates were incubated at 15-20° C. Reading was done following 4 h incubation of BA and PA. Formazan product was measured at 490 nm. MTS reduction is proportional to the number and activity of live spores. Spore viability was calculated by: % viability=100×(OD490 value for the sample−mean background OD490)/(mean OD490 for non-treated water control−mean background OD490).

[3] = test system: sea lice; test: In vivo studies: number of attached sea lice after treatment; settings: 2.75 ppm/L PA only, 15 min exposure, 4 days post treatment
Experimental: Water salinity: […]; Temperature: 8.5° C.; Oxygen: minimum 8 mg/L in water during treatment (8-10 mg/L measured).

[4] = test system: eggs and/or fry of Atlantic salmon; settings: 50 mg/L treatment for 1 h; cited from earlier work

OB(O)O [BA, boric acid]
effect on zoospore production and release and on zoosporangia [1]: interferes with the production and subsequent release of zoospores
viability (OD value) ([2]; BA from 1 g/L up to 4 g/L, biofilm): declining viability

CCC(=O)O [PA, propionic acid]
reduction of the number of attached sea lice [3]: Reduced the number of attached sea lice by 30%
effect on spores and hyphae [1]: direct toxic effect
viability (OD value) ([2]; PA 4 ml added (equivalent to 125.6 mM/L), biofilm): lower OD value
viability, statistical evaluation against 4 g/L of BA ([2]; PA (4 ml)): significantly lower viability

O=[N+]([O-])C(Br)(CO)CO [Pyzece, Bronopol]
viability level (OD value) ([2]; 300 mg/L, biofilm, compared with BA and PA combination (approx. 0.3)): same viability level
egg toxicity [4]: egg mortality
